Experimental data published in ChEMBL document CHEMBL4765464, “Discovery of BMS-986144, a Third-Generation, Pan-Genotype NS3/4A Protease Inhibitor for the Treatment of Hepatitis C Virus Infection” (J Med Chem, 2020).
pEC50, pIC50: −log10 of the molar value.

How the values were obtained:
[1] = Inhibition of recombinant full length NS3/4A protease in Hepatitis C virus subtype 3a infected in human HuH7 cells using Ac-Asp-Glu-Asp (EDANS)-Glu-Glu-Abu-(COO) Ala-Ser-Lys (DABCYL)-NH2 as substrate by FRET assay; settings: Huh-7
[2] = Inhibition of recombinant full length NS3/4A protease in Hepatitis C virus subtype 1a replicon infected in human HuH7 cells preincubated for 3 days followed by substrate addition and measured after 2 hrs by renilla luciferase reporter gene assay; format: cell-based; settings: Huh-7
[3] = Inhibition of recombinant full length NS3/4A protease in Hepatitis C virus subtype 3a replicon infected in human HuH7 cells preincubated for 3 days followed by substrate addition and measured after 2 hrs by renilla luciferase reporter gene assay; format: cell-based; settings: Huh-7
[4] = Inhibition of recombinant full length NS3/4A R155K mutant protease in Hepatitis C virus subtype 1a replicon infected in human HuH7 cells preincubated for 3 days followed by substrate addition and measured after 2 hrs by renilla luciferase reporter gene assay; format: cell-based; settings: Huh-7
[5] = Inhibition of recombinant full length NS3/4A D168V mutant protease in Hepatitis C virus subtype 1b replicon infected in human HuH7 cells preincubated for 3 days followed by substrate addition and measured after 2 hrs by renilla luciferase reporter gene assay; format: cell-based; settings: Huh-7
[6] = Metabolic stability in human liver microsomes assessed as half-life incubated for 5 to 45 mins in presence of NADPH by LC-MS analysis; format: ADME, Microsome; settings: time 5-45 min
[7] = Clearance in rat at 1 mg/kg, iv; format: ADME, organism-based; settings: in vivo
[8] = Half life in rat at 1 mg/kg, iv; format: ADME, organism-based; settings: in vivo
[9] = AUC (0 to 24 hrs) in rat at 5 mg/kg, po; format: ADME, organism-based; set-up: time < 24 hr, route oral, dose 5 mg/kg; settings: in vivo
[10] = Cmax in rat at 5 mg/kg, po; format: ADME, organism-based; set-up: route oral, dose 5 mg/kg; settings: in vivo
[11] = Drug concentration in rat plasma at 5 mg/kg, po measured upto 24 hrs; format: ADME, organism-based; settings: read-out: Ct
[12] = Ratio of drug concentration in liver to plasma in rat at 5 mg/kg, po measured upto 24 hrs; format: ADME, organism-based; settings: liver and plasma
[13] = Oral bioavailability in rat at 5 mg/kg; format: ADME, organism-based; settings: in vivo
[14] = Half-life in dog at 3 mg/kg, po or 1 mg/kg, iv; format: ADME, organism-based, Canis lupus familiaris; settings: in vivo
[15] = Clearance in rat at 5 mg/kg, po or 1 mg/kg, iv; format: ADME, organism-based; settings: in vivo
[16] = Clearance in dog at 3 mg/kg, po or 1 mg/kg, iv; format: ADME, organism-based, Canis lupus familiaris; settings: in vivo
[17] = Oral bioavailability in dog at 3 mg/kg; format: ADME, organism-based, Canis lupus familiaris; settings: in vivo
[18] = Drug concentration in dog plasma at 3 mg/kg, po measured upto 24 hrs; format: ADME, organism-based, Canis lupus familiaris; settings: read-out: Ct
[19] = Half-life in cynomolgus monkey at 3 mg/kg, po or 1 mg/kg, iv; format: ADME, organism-based, Macaca fascicularis; settings: in vivo
[20] = Oral bioavailability in cynomolgus monkey at 3 mg/kg; format: ADME, organism-based, Macaca fascicularis; settings: in vivo
[21] = AUC in cynomolgus monkey at 3 mg/kg, po or 1 mg/kg, iv; format: ADME, organism-based, Macaca fascicularis; set-up: dose 3 mg/kg; settings: in vivo
[22] = Drug concentration in cynomolgus monkey plasma at 3 mg/kg, po measured upto 24 hrs; format: ADME, organism-based, Macaca fascicularis; settings: read-out: Ct
[23] = Inhibition of HCV 1b NS3/4A protease; set-up: species or system Hepatitis C virus subtype 1b
[24] = Inhibition of HCV 2a NS3/4A protease; set-up: species or system Hepatitis C virus subtype 2a
[25] = Inhibition of HCV 2b NS3/4A protease; set-up: species or system Hepatitis C virus subtype 2b
[26] = Inhibition of HCV 3a NS3/4A protease; set-up: species or system Hepatitis C virus subtype 3a
[27] = Inhibition of HCV 4a NS3/4A protease; set-up: species or system Hepatitis C virus subtype 4a
[28] = Inhibition of HCV 5a NS3/4A protease; set-up: species or system Hepatitis C virus subtype 5a
[29] = Inhibition of HCV 6a NS3/4A protease; set-up: species or system Hepatitis C virus subtype 6a
[30] = Inhibition of HCV 1b NS3/4A protease preincubated for 45 mins in presence of compound; set-up: species or system Hepatitis C virus subtype 1b
[31] = Inhibition of HCV 2a NS3/4A protease preincubated for 45 mins in presence of compound; set-up: species or system Hepatitis C virus subtype 2a
[32] = Inhibition of HCV 2b NS3/4A protease preincubated for 45 mins in presence of compound; set-up: species or system Hepatitis C virus subtype 2b
[33] = Inhibition of HCV 3a NS3/4A protease preincubated for 45 mins in presence of compound; set-up: species or system Hepatitis C virus subtype 3a
[34] = Inhibition of HCV 4a NS3/4A protease preincubated for 45 mins in presence of compound; set-up: species or system Hepatitis C virus subtype 4a
[35] = Inhibition of HCV 5a NS3/4A protease preincubated for 45 mins in presence of compound; set-up: species or system Hepatitis C virus subtype 5a
[36] = Inhibition of HCV 6a NS3/4A protease preincubated for 45 mins in presence of compound; set-up: species or system Hepatitis C virus subtype 6a
[37] = Selectivity index, ratio of IC50 for inhibition of HCV 1a NS3/4A protease to IC50 for inhibition of HCV 1a NS3/4A protease preincubated for 45 mins in presence of compound
[38] = Selectivity index, ratio of IC50 for inhibition of HCV 2b NS3/4A protease to IC50 for inhibition of HCV 2b NS3/4A protease preincubated for 45 mins in presence of compound
[39] = Selectivity index, ratio of IC50 for inhibition of HCV 3a NS3/4A protease to IC50 for inhibition of HCV 3a NS3/4A protease preincubated for 45 mins in presence of compound
[40] = Selectivity index, ratio of IC50 for inhibition of HCV 4a NS3/4A protease to IC50 for inhibition of HCV 4a NS3/4A protease preincubated for 45 mins in presence of compound
[41] = Selectivity index, ratio of IC50 for inhibition of HCV 5a NS3/4A protease to IC50 for inhibition of HCV 5a NS3/4A protease preincubated for 45 mins in presence of compound
[42] = Selectivity index, ratio of IC50 for inhibition of HCV 6a NS3/4A protease to IC50 for inhibition of HCV 6a NS3/4A protease preincubated for 45 mins in presence of compound
Cytochrome P450 3A4 [43] = target: T1, Cytochrome P450 3A4 (Homo sapiens, UniProt P08684); assay: Inhibition of human CYP3A4 in human pooled liver microsomes at 0.002 to 40 uM in presence of testosterone as substrate preincubated in presence of NADPH followed by addition of substrate by LC-MS/MS analysis; format: ADME; settings: TDE = time-dependent effect, dose 0.002-40 µM, time <=30 min
T1 sequence (P08684 whole entry): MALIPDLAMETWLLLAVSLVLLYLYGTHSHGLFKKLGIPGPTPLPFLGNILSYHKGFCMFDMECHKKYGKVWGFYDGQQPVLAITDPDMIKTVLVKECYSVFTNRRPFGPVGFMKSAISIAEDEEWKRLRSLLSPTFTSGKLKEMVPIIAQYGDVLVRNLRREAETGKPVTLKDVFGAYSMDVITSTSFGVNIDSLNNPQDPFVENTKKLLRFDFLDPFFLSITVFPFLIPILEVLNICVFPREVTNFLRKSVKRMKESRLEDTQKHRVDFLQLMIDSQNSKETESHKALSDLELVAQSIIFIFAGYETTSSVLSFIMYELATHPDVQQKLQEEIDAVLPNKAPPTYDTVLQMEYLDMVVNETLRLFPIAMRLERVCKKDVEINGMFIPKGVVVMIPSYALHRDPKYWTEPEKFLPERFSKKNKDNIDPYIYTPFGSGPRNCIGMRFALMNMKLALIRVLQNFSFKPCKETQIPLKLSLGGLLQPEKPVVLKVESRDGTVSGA

Cytochrome P450 3A4 [44] = target: T1, Cytochrome P450 3A4; assay: Inhibition of human CYP3A4 in human pooled liver microsomes in presence of testosterone as substrate preincubated for 0 mins in presence of NADPH followed by addition of substrate by LC-MS/MS analysis; format: ADME
Cytochrome P450 3A4 [45] = target: T1, Cytochrome P450 3A4; assay: Inhibition of human CYP3A4 in human pooled liver microsomes in presence of testosterone as substrate preincubated for 30 mins in presence of NADPH followed by addition of substrate by LC-MS/MS analysis; format: ADME
Cytochrome P450 3A4 [46] = target: T1, Cytochrome P450 3A4; assay: Inhibition of human CYP3A4 in human pooled liver microsomes in presence of midazolam as substrate preincubated for 30 mins in presence of NADPH followed by addition of substrate by LC-MS/MS analysis; format: ADME

Compound: CC[C@@H]1C[C@H](C)CC/C=C\[C@@H]2C[C@@]2(C(=O)NS(=O)(=O)C2(C)CC2)NC(=O)[C@@H]2C[C@@H](Oc3nccc4cc(OC)c(F)cc34)CN2C(=O)[C@H]1NC(=O)OC(C)(C)C(F)(F)F
- pIC50 [1]: 8.20
- pEC50 [2]: 8.55
- pEC50 [3]: 7.85
- pEC50 [4]: 7.96
- pEC50 [5]: 8.22
- half-life [6]: 28 min
- clearance [7]: 0.3 mL/min/kg
- half-life [8]: 558 min
- AUC(0-t) at 24 h [9]: 151 µM·h
- Cmax [10]: 12.1 µM
- concentration at 24 h [11]: 3.85 µM
- Kp at 24 h [12]: 1.5
- bioavailability [13]: 50%
- half-life [14]: 492 min
- clearance [15]: 0.3 mL/min/kg
- clearance [16]: 0.3 mL/min/kg
- bioavailability [17]: 87%
- concentration at 24 h [18]: 838 nM
- half-life [19]: 180 min
- bioavailability [20]: 14%
- AUC [21]: 0.898 µM·h
- concentration at 24 h [22]: 1 nM
- pIC50 [23]: 9.22
- pIC50 [24]: 9.15
- pIC50 [25]: 8.70
- pIC50 [26]: 8.25
- pIC50 [27]: 9.05
- pIC50 [28]: 9.00
- pIC50 [29]: 9.15
- pIC50 [30]: 10.00
- pIC50 [31]: 9.70
- pIC50 [32]: 9.05
- pIC50 [33]: 8.12
- pIC50 [34]: 10.00
- pIC50 [35]: 10.00
- pIC50 [36]: 10.00
- Selectivity Index [37]: 4
- Selectivity Index [38]: 2
- Selectivity Index [39]: 1
- Selectivity Index [40]: 9
- Selectivity Index [41]: 10
- Selectivity Index [42]: 6
- inhibition (INH) (Cytochrome P450 3A4 [43]): Tde
- pIC50 (Cytochrome P450 3A4 [44]): < 4.40
- pIC50 (Cytochrome P450 3A4 [45]): 5.52
- pIC50 (Cytochrome P450 3A4 [46]): 5.55
